Assay results from patent US20260285850A1, “SUBSTITUTED OXAZOLIDINONES AND IMIDAZOLINONES AS HERBICIDES” (FMC CORPORATION, priority 2023, published 2026).

What was measured:
Format in all cases: in vivo
[1] = test system: barnyardgrass (Echinochloa crusgalli); assay: Test B flooded paddy test, visual plant response rating 0-100; details: 250 g ai/ha, Flood, applied to paddy water, evaluated after 13 days
In short: (§1)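 Paddy-water application: test compounds went directly into water flooded 3 cm above the soil surface, with plants at 2 leaves. After a 13-day greenhouse period, responses were judged by eye relative to controls; a dash marks an untested entry.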

[2] = test system: ducksalad (Heteranthera limosa); assay: as above; details: 250 g ai/ha, Flood, applied to paddy water, evaluated after 13 days
In short: as §1

[3] = test system: sedge, umbrella (small-flower umbrella sedge, Cyperus difformis); assay: as above; details: 250 g ai/ha, Flood, applied to paddy water, evaluated after 13 days
In short: as §1

[4] = test system: rice (Oryza sativa); assay: as above; details: 250 g ai/ha, Flood, applied to paddy water, evaluated after 13 days
In short: as §1

[5] = test system: oat, wild (wild oat, Avena fatua); assay: Test A postemergence application, visual injury rating 0-100; details: 10 days
In short: (§2)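 Greenhouse test: loam/sand pots received a surfactant-containing formulation, as a preemergence directed soil spray or a postemergence spray on young plants. Injury was judged visually at day 10 relative to untreated controls.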

[6] = test system: blackgrass (Alopecurus myosuroides); assay: as above; details: 10 days
In short: as §2

[7] = test system: soybean (Glycine max); assay: as above; details: 10 days
In short: as §2

[8] = test system: green foxtail (Setaria viridis); assay: as above; details: 10 days
In short: as §2

[9] = test system: ryegrass, Italian (italian ryegrass, Lolium multiflorum); assay: as above; details: 10 days
In short: as §2

[10] = test system: ragweed (common ragweed, Ambrosia artemisiifolia); assay: as above; details: 10 days
In short: as §2

[11] = test system: palmer (palmer amaranth, palmer pigweed, Amaranthus palmeri); assay: as above; details: 10 days
In short: as §2

[12] = test system: kochia (Bassia scoparia); assay: as above; details: 10 days
In short: as §2

[13] = test system: wheat (Triticum aestivum); assay: as above; details: 10 days
In short: as §2

[14] = test system: corn (Zea mays); assay: as above; details: 10 days
In short: as §2

[15] = test system: barnyardgrass (Echinochloa crus-galli); assay: as above; details: 10 days
In short: as §2

[16] = test system: horseweed (Erigeron canadensis); assay: as above; details: 10 days
In short: as §2

[17] = test system: galium (catchweed bedstraw, Galium aparine); assay: as above; details: 10 days
In short: as §2

[18] = test system: oat, wild (wild oat, Avena fatua); assay: Test A preemergence soil spray, visual injury rating 0-100; details: 10 days, 0 = no effect, 100 = complete control
In short: as §2

[19] = test system: blackgrass (Alopecurus myosuroides); assay: as above; details: 10 days, 0 = no effect, 100 = complete control
In short: as §2

[20] = test system: soybean (Glycine max); assay: as above; details: 10 days, 0 = no effect, 100 = complete control
In short: as §2

[21] = test system: green foxtail (Setaria viridis); assay: as above; details: 10 days, 0 = no effect, 100 = complete control
In short: as §2

[22] = test system: ryegrass, Italian (italian ryegrass, Lolium multiflorum); assay: as above; details: 10 days, 0 = no effect, 100 = complete control
In short: as §2

[23] = test system: ragweed (common ragweed, Ambrosia artemisiifolia); assay: as above; details: 10 days, 0 = no effect, 100 = complete control
In short: as §2

[24] = test system: palmer (palmer amaranth, palmer pigweed, Amaranthus palmeri); assay: as above; details: 10 days, 0 = no effect, 100 = complete control
In short: as §2

[25] = test system: kochia (Bassia scoparia); assay: as above; details: 10 days, 0 = no effect, 100 = complete control
In short: as §2

[26] = test system: wheat (Triticum aestivum); assay: as above; details: 10 days, 0 = no effect, 100 = complete control
In short: as §2

[27] = test system: corn (Zea mays); assay: as above; details: 10 days, 0 = no effect, 100 = complete control
In short: as §2

[28] = test system: barnyardgrass (Echinochloa crus-galli); assay: as above; details: 10 days, 0 = no effect, 100 = complete control
In short: as §2

[29] = 31 g ai/ha, postemergence, 0 = no effect, 100 = complete control
[30] = Postemergence, 125 g ai/ha, 0 is no effect, 100 is complete control

## CC1(C(=O)NC2CCC(C(=O)NS(C)(=O)=O)C2)CN(c2cc(F)cc(F)c2)C(=O)O1 (stereo not shown) [Compound 13]
[1]
  Plant response rating, Barnyardgrass (0 to 100 scale, 0 is no effect and 100 is complete control): 0
[2]
  Plant response rating, Ducksalad (0 to 100 scale, 0 is no effect and 100 is complete control): 0
[3]
  Plant response rating, Sedge, Umbrella (0 to 100 scale, 0 is no effect and 100 is complete control): 0
[4]
  Plant response rating, Rice (0 to 100 scale, 0 is no effect and 100 is complete control): 0
[5]; [29]
  Oat, Wild plant response rating (0-100): 10
[5]; [30]
  Oat, Wild plant response rating (0 to 100 scale): 50
[6]; [29]
  Blackgrass plant response rating (0-100): 10
[6]; [30]
  Blackgrass plant response rating (0 to 100 scale): 60
[7]; [29]
  Soybean plant response rating (0-100): 0
[7]; [30]
  Soybean plant response rating (0 to 100 scale): 50
[8]; [29]
  Foxtail, Green plant response rating (0-100): 0
[8]; [30]
  Foxtail, Green plant response rating (0 to 100 scale): 50
[9]; [29]
  Ryegrass, Italian plant response rating (0-100): 20
[9]; [30]
  Ryegrass, Italian plant response rating (0 to 100 scale): 70
[10]; [29]
  Ragweed plant response rating (0-100): 0
[10]; [30]
  Ragweed plant response rating (0 to 100 scale): 20
[11]; [29]
  Amaranth, Palmer plant response rating (0-100): 10
[11]; [30]
  Amaranth, Palmer / Pigweed, Palmer plant response rating (0 to 100 scale): 90
[12]; [29]
  Kochia plant response rating (0-100): 0
[12]; [30]
  Kochia plant response rating (0 to 100 scale): 50
[13]; [29]
  Wheat plant response rating (0-100): 50
[13]; [30]
  Wheat plant response rating (0 to 100 scale): 70
[14]; [29]
  Corn plant response rating (0-100): 0
[14]; [30]
  Corn plant response rating (0 to 100 scale): 30
[15]; [29]
  Barnyardgrass plant response rating (0-100): 10
[15]; [30]
  Barnyardgrass plant response rating (0 to 100 scale): 70
[16]; [29]
  Horseweed plant response rating (0-100): 0
[16]; [30]
  Horseweed plant response rating (0 to 100 scale): 20
[17]; [29]
  Galium plant response rating (0-100): 0
[17]; [30]
  Galium plant response rating (0 to 100 scale): 70
[18]; 31 g ai/ha
  Oat, Wild plant response rating (0-100): 0
[18]; 125 g ai/ha
  Oat, Wild plant response rating (0 to 100 scale): 20
[19]; 31 g ai/ha
  Blackgrass plant response rating (0-100): 20
[19]; 125 g ai/ha
  Blackgrass plant response rating (0 to 100 scale): 50
[20]; 31 g ai/ha
  Soybean plant response rating (0-100): 0
[20]; 125 g ai/ha
  Soybean plant response rating (0 to 100 scale): 0
[21]; 31 g ai/ha
  Foxtail, Green plant response rating (0-100): 0
[21]; 125 g ai/ha
  Foxtail, Green plant response rating (0 to 100 scale): 50
[22]; 31 g ai/ha
  Ryegrass, Italian plant response rating (0-100): 20
[22]; 125 g ai/ha
  Ryegrass, Italian plant response rating (0 to 100 scale): 90
[23]; 31 g ai/ha
  Ragweed plant response rating (0-100): 40
[23]; 125 g ai/ha
  Ragweed plant response rating (0 to 100 scale): 20
[24]; 31 g ai/ha
  Amaranth, Palmer plant response rating (0-100): 0
[24]; 125 g ai/ha
  Amaranth, Palmer plant response rating (0 to 100 scale): 0
[25]; 31 g ai/ha
  Kochia plant response rating (0-100): 0
[25]; 125 g ai/ha
  Kochia plant response rating (0 to 100 scale): 0
[26]; 31 g ai/ha
  Wheat plant response rating (0-100): 0
[26]; 125 g ai/ha
  Wheat plant response rating (0 to 100 scale): 80
[27]; 31 g ai/ha
  Corn plant response rating (0-100): 0
[27]; 125 g ai/ha
  Corn plant response rating (0 to 100 scale): 0
[28]; 31 g ai/ha
  Barnyardgrass plant response rating (0-100): 0
[28]; 125 g ai/ha
  Barnyardgrass plant response rating (0 to 100 scale): 20
